The source of these data is patent US20230124361A1, “SMALL MOLECULE STING ANTAGONISTS” (CURADEV PHARMA PVT. LTD., priority 2020, published 2023).

SMILES strings stand for the structures.

In the experiment the target is T1, STING (Homo sapiens, UniProt Q86WV6, G230A/H232R/R293Q/R71H).
T1 construct: host or cells: THP1-Dual cells (human THP-1 monocyte line with Lucia/SEAP reporters)
T1 sequence (Q86WV6 whole entry R71H/G230A/H232R/R293Q): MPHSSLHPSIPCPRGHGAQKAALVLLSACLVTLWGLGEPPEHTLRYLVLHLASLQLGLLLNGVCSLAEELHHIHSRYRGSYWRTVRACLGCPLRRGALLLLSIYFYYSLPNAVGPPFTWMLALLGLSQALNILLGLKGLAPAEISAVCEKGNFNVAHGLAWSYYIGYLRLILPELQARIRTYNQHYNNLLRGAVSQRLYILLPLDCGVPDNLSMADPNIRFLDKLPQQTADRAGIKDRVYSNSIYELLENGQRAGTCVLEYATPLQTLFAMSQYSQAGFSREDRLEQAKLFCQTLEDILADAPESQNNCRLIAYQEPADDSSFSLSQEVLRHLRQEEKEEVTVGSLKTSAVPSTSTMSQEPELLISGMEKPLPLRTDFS
The experiment can be described thus: Reporter gene expression assay in THP1-Dual cells (IRF pathway Lucia luciferase, 2',3'-cGAMP stimulation). It counts as cell-based. As to conditions: 10 min preincubation, 5 μM 2',3'-cGAMP, 20 hr, IRF reporter QUANTI-Luc, read-out: THP-1 (HAQ) Activity. Summed up:
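THP1-Dual cells preincubated 10 min with compound, then stimulated with 5 μM 2′,3′-cGAMP for 20 hr. Secreted Lucia luciferase (IRF reporter) measured in supernatant by luminescence; IC50 reported as ranges (A ≤1 μM, B >1–≤10 μM, C >10 μM).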
Consider `O=C(Nc1ccc2c(c1)CCCC2)Nc1ccc2c(c1)OCC(=O)N2Cc1ccccc1` [Example 133, 1-(4-benzyl-3-oxo-3,4-dihydro-2H-benzo[b][1, 4]oxazin-7-yl)-3-(5,6,7,8-tetrahydro-naphthalen-2-yl)urea], for which the IC50 lay within 1 to 10 µM.
For the compound `CC(C)(C)c1nc(CN2C(=O)COc3cc(NC(=O)Nc4ccc5cc[nH]c5c4)ccc32)no1` [Example 134, l-(4-((5-(tert-butyl)-1,2,4-oxadiazol-3-yl)methyl)-3-oxo-3,4-dihydro-2H-benzo[b][, 4]oxazin-7-yl)-3-(1H-indol-6-yl)urea], the IC50 fell in the range of 1 to 10 µM.
Consider `O=C(Nc1ccc2c(c1)OCC(=O)N2Cc1ccccc1)NC1CCc2ccccc2C1` (centres unmarked) [Example 135, 1-(4-benzyl-3-oxo-3,4-dihydro-2H-benzo[b][1, 4]oxazin-7-yl)-3-(1,2,3,4-tetrahydro-naphthalen-2-yl)urea], for which the IC50 lay in the range of 1 to 10 µM.
Under `O=C(Nc1ccc2c(c1)OCC(=O)N2Cc1ccccc1)NC1Cc2ccccc2C1` [Example 136, 1-(4-benzyl-3-oxo-3,4-dihydro-2H-benzo[b][1, 4]oxazin-7-yl)-3-(2,3-dihydro-1H-inden-2-yl)urea] stands 1 to 10 µM; under `O=C(Nc1ccc2c(c1)OCC(=O)N2Cc1ccccc1)Nc1ccn(-c2ccccc2)n1` [Example 138, 1-(4-benzyl-3-oxo-3,4-dihydro-2H-benzo[b][1, 4]oxazin-7-yl)-3-(1-phenyl-1H-pyrazol-3-yl)urea], > 10 µM.
In the case of `O=C(Nc1ccc2c(c1)OCC(=O)N2Cc1ccc(O)cc1)Nc1ccc2cc[nH]c2c1` [Example 139, 1-(4-(4-hydroxybenzyl)-3-oxo-3,4-dihydro-2H-benzo[b][1, 4]oxazin-7-yl)-3-(1H-indol-6-yl)urea], the IC50 lay in the range of 1 to 10 µM.
Regarding `COC(=O)c1ccccc1CN1C(=O)COc2cc(NC(=O)Nc3ccc4cc[nH]c4c3)ccc21` [Example 140, methyl 2-((7-(3-(1H-indol-6-yl)ureido)-3-oxo-2,3-dihydro-4H-benzo[b][1, 4]oxazin-4-yl)methyl) benzoate], the IC50 was in the range of 1 to 10 µM.
Turning to `O=C(Nc1ccc2c(c1)OCC(=O)N2Cc1ccccc1)N1CCc2ccccc2C1` [Example 141, N-(4-benzyl-3-oxo-3,4-dihydro-2H-benzo[b][1, 4]oxazin-7-yl)-3,4-dihydro-isoquinoline-2(1H)-carboxamide], the IC50 lay within 1 to 10 µM.
On to `O=C(Nc1ccc2c(c1)NCC2)Nc1ccc2c(c1)OCC(=O)N2Cc1ccccc1` [Example 142, 1-(4-benzyl-3-oxo-3,4-dihydro-2H-benzo[b][1, 4]oxazin-7-yl)-3-(indolin-6-yl)urea], for which the IC50 was 1 to 10 µM.
For `O=C(Nc1ccc2c(c1)OCC(=O)N2Cc1ccccc1C(=O)O)Nc1ccc2cc[nH]c2c1` [Example 143, 2-((7-(3-(1H-indol-6-yl)ureido)-3-oxo-2,3-dihydro-4H-benzo[b][1,4]oxazin-4-yl)methyl)benzoic acid], the IC50 was > 10 µM.
`NC(=O)c1ccccc1CN1C(=O)COc2cc(NC(=O)Nc3ccc4cc[nH]c4c3)ccc21` [Example 144, 2-((7-(3-(1H-indol-6-yl)ureido)-3-oxo-2,3-dihydro-4H-benzo[b][1, 4]oxazin-4-yl)methyl) benzamide]: the IC50 was 1 to 10 µM.
On to `O=C(Nc1ccc2c(c1)OCC(=O)N2CC1COCCO1)Nc1ccc2cc[nH]c2c1` (stereo not drawn) [Example 145, l-(4-((1,4-dioxan-2-yl)methyl)-3-oxo-3,4-dihydro-2H-benzo[b][1, 4]oxazin-7-yl)-3-(1H-indol-6-yl)urea], for which the IC50 lay within 1 to 10 µM.
Consider `O=C(Nc1ccc2c(c1)OCC(=O)N2CC1CCCO1)Nc1ccc2cc[nH]c2c1` (centres unmarked) [Example 146, 1-(1H-indol-6-yl)-3-(3-oxo-4-((tetrahydro-furan-2-yl)methyl)-3,4-dihydro-2H-benzo[b][1, 4]oxazin-7-yl)urea], for which the IC50 lay in the range of 1 to 10 µM.
For `O=C(Nc1ccc2c(c1)OCC(=O)N2Cc1ccncc1)Nc1ccc2cc[nH]c2c1` [Example 147, 1-(iH-indol-6-yl)-3-(3-oxo-4-(pyridin-4-ylmethyl)-3,4-dihydro-2H-benzo[b][1, 4]oxazin-7-yl)urea], the IC50 is 1 to 10 µM.
